Patent US20260092061A1, “COMPOUNDS FOR TARGETED PROTEIN DEGRADATION” (Amphista Therapeutics Limited, priority 2022, published 2026)

Tests used:
BRD9 [1] = target: T1, BRD9 (Homo sapiens, UniProt Q9H8M2); test: BRD9 degradation, HiBiT-BRD9 KI HEK293 (LgBiT) cells, NanoGlo Lytic Endpoint assay (Assay Protocol 1); assay type: cell-based; settings: BRD9 degradation; for Dmax at 1 µM / Dmax: HEK293; for Dmax at 1 µM: 1 μM compound at 6 h of treatment, read-out: Assay 1 Dmax
T1 sequence (Q9H8M2 1-597): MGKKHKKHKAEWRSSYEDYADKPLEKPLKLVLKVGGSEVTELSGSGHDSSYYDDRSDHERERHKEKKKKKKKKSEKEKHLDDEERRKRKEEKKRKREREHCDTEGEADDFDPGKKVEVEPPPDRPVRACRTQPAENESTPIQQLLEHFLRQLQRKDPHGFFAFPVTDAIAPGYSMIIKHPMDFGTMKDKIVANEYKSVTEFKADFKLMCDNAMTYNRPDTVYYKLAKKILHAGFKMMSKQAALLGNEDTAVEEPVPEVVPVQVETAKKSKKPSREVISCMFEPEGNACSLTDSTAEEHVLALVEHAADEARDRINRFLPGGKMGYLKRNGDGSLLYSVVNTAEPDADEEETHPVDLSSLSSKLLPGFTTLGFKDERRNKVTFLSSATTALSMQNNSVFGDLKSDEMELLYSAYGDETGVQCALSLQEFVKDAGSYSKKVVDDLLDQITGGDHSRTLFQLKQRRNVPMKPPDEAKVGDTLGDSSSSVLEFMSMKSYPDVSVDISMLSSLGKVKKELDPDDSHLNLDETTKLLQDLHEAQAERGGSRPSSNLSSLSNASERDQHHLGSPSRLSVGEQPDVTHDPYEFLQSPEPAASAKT
Procedure, shortened: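 HiBiT-tagged BRD9 knock-in HEK293 (LgBiT) cells exposed to compounds for 6 h at 37 °C, 5% CO2. Residual BRD9 measured by HiBiT lytic luminescence. % BRD9 remaining normalised to DMSO-treated cells (high) and no-cell wells (low).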

BRD9 [2] = target: T1, BRD9; test: Degradation of BRD9 (IF), immunofluorescence in MV4-11 cells, 24 hours (Assay Protocol 2); assay type: cell-based; set-up: A suspension of MV4-11 cells (ATCC CRL-9591) was prepared; host or cells: MV4-11
Procedure, shortened: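 % BRD9 remaining, scaled between DMSO (high) and 100 nM CFT-8634 (low) control wells, derives from mean Alexa 647 contrast in central nuclei by high-content imaging. MV4-11 cells had 24 h compound exposure at 37° C. before PFA fixation, Triton permeabilisation and anti-BRD9 E4Q3F immunostaining.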

[3] = Table 2, Assay Protocol 1, 6 h of treatment, read-out: Assay 1 DC50
[4] = MV4-11, 24 h, Table 2, BRD9 degradation (IF), Assay Protocol 2, MV4-11 cells, read-out: Assay 2 DCmax
[5] = Table 2, BRD9 degradation (IF), Assay Protocol 2, MV4-11 cells, read-out: Assay 2 DC50
[6] = Assay protocol 1, read-out: Dmax
[7] = Assay protocol 2, BRD9 degradation, read-out: DC50
[8] = MV4-11, Assay protocol 2, BRD9 degradation, read-out: Dmax
[9] = Table 4, determined according to Assay Protocol 1, read-out: DC50^1
[10] = MV4-11, Table 4, BRD9 degradation, determined according to Assay Protocol 2, read-out: Dmax^2
[11] = Table 4, BRD9 degradation, determined according to Assay Protocol 2, read-out: DC50^2
[12] = Table 4, determined according to Assay Protocol 1, read-out: Dmax^1

COc1cc(-c2cn(C)c(=O)c(C)c2C)cc(OC)c1CN1CCCN(Cc2cccc3c2CCN(C(=O)/C(C#N)=C/C2(F)CC2)C3C)CC1 (single isomer, unassigned) [Compound A69, (E/Z)-2-(5-((4-(2,6-dimethoxy-4-(1,4,5-trimethyl-6-oxo-1,6-dihydropyridin-3-yl)benzyl)-1,4-diazepan-1-yl)methyl)-1-methyl-1,2,3,4-tetrahydroisoquinoline-2-carbonyl)-3-(1-fluorocyclopropyl)acrylonitrile]
Dmax at 1 µM (BRD9 [1]; Table 2, Assay Protocol 1): > 75% | DC50 (BRD9 [1]; [3]): 1.25 to 10 nM | Dmax (BRD9 [2]; [4]): 40 to 70% | DC50 (BRD9 [2]; [5]): 25 to 300 nM

COc1cc(-c2cn(C)c(=O)c(C)c2C)cc(OC)c1CN1CCC2(CC1)CN(c1cccc(C3CCCN3C(=O)C(C#N)=CC(C)(C)C)c1)C2 (single isomer, unassigned) [Compound B43, 2-(2-(3-(7-(2,6-dimethoxy-4-(1,4,5-trimethyl-6-oxo-1,6-dihydropyridin-3-yl)benzyl)-2,7-diazaspiro[3.5]nonan-2-yl)phenyl)pyrrolidine-1-carbonyl)-4,4-dimethylpent-2-enenitrile]
DC50 (BRD9 [1]; Assay protocol 1, read-out: DC50): < 1.25 nM | Dmax (BRD9 [1]; [6]): 40 to 70% | DC50 (BRD9 [2]; [7]): 1.25 to 10 nM | Dmax (BRD9 [2]; [8]): 40 to 70%

COc1cc(-c2cn(C)c(=O)c(C)c2C)cc(OC)c1CN1CCN(c2cccc3c2CCN(C(=O)/C(C#N)=C/c2cccc(Br)n2)C3C)CC1 (single isomer, unassigned) [Compound C28, (E/Z)-3-(6-bromopyridin-2-yl)-2-(5-(4-(2,6-dimethoxy-4-(1,4,5-trimethyl-6-oxo-1,6-dihydropyridin-3-yl)benzyl)piperazin-1-yl)-1-methyl-1,2,3,4-tetrahydroisoquinoline-2-carbonyl)acrylonitrile]
Dmax (BRD9 [1]; [6]): 25 to 40% | DC50 (BRD9 [2]; [7]): 25 to 1000 nM | Dmax (BRD9 [2]; [8]): 40 to 70%

COc1cc(-c2cn(C)c(=O)c(C)c2C)cc(OC)c1CN1CCC(Oc2cccc3c2CCN(C(=O)/C(C#N)=C/c2cccc(C(F)(F)F)n2)C3C)CC1 (stereo not shown) [B22]
Dmax (BRD9 [1]; [6]): > 75% | Dmax (BRD9 [2]; [8]): 40 to 70%

COc1cc(-c2cn(C)c(=O)c(C)c2C)cc(OC)c1CN(C)C(=O)/C(C#N)=C/c1cccc(Br)n1 [BRD9ab, (E/Z)-3-(6-bromopyridin-2-yl)-2-cyano-N-(2,6-dimethoxy-4-(1,4,5-trimethyl-6-oxo-1,6-dihydropyridin-3-yl)benzyl)-N-methylacrylamide]
DC50 (BRD9 [1]; [9]): < 25 nM | Dmax (BRD9 [2]; [10]): 50 to 70% | DC50 (BRD9 [2]; [11]): < 25 nM

COc1cc(-c2cn(C)c(=O)c(C)c2C)cc(OC)c1CN1CCN(C(=O)/C(C#N)=C/C(C)(C)C)CC12CC2 [BRD9f, (E/Z)-2-(4-(2,6-dimethoxy-4-(1,4,5-trimethyl-6-oxo-1,6-dihydropyridin-3-yl)benzyl)-4,7-diazaspiro[2.5]octane-7-carbonyl)-4,4-dimethylpent-2-enenitrile]
Dmax (BRD9 [1]; [12]): 50 to 70% | DC50 (BRD9 [1]; [9]): < 25 nM | Dmax (BRD9 [2]; [10]): 50 to 70% | DC50 (BRD9 [2]; [11]): < 25 nM

COc1cc(-c2cn(C)c(=O)c(C)c2C)cc(OC)c1C(=O)N(C)C1CCN(C(=O)/C(C#N)=C/C(C)(C)C)CC1 [BRD9u]
Dmax (BRD9 [1]; [12]): 30 to 50% | Dmax (BRD9 [2]; [10]): 30 to 50% | DC50 (BRD9 [2]; [11]): < 25 nM

COc1cc(-c2cn(C)c(=O)c3ccsc23)cc(OC)c1CN1CCN(C(=O)/C(C#N)=C/C(C)(C)C)CC1 [BRD9w, (E/Z)-2-(4-(2,6-dimethoxy-4-(5-methyl-4-oxo-4,5-dihydrothieno[3,2-c]pyridin-7-yl)benzyl)piperazine-1-carbonyl)-4,4-dimethylpent-2-enenitrile]
Dmax (BRD9 [1]; [12]): > 70% | DC50 (BRD9 [1]; [9]): < 25 nM | Dmax (BRD9 [2]; [10]): > 70% | DC50 (BRD9 [2]; [11]): < 25 nM

COc1cc(-c2cn(C)c(=O)c3cnccc23)cc(OC)c1CN1CCC(N(C)c2cccc3c2CCN(C(=O)/C(C#N)=C/C(C)(C)C)C3C)CC1 (stereo not shown) [Compound A30]
Dmax at 1 µM (BRD9 [1]; Table 2, Assay Protocol 1): 40 to 70% | DC50 (BRD9 [1]; [3]): 1.25 to 10 nM | Dmax (BRD9 [2]; [4]): < 50%

COc1cc(-c2cn(C)c(=O)c3cnccc23)cc(OC)c1CN1C2CCC1CN(Cc1cccc3c1CCN(C(=O)/C(C#N)=C/C(C)(C)C)C3C)C2 (stereo not shown) [Compound A49]
Dmax at 1 µM (BRD9 [1]; Table 2, Assay Protocol 1): 40 to 70% | DC50 (BRD9 [1]; [3]): 1.25 to 10 nM | Dmax (BRD9 [2]; [4]): 40 to 70% | DC50 (BRD9 [2]; [5]): < 1.25 nM
